We go through 7 molecules from PMC12040169 (PLOS Biology, 2025).

Data set [1] can be described thus: in vitro. The arrangement: Viability of infected HeLa host cells, resazurin conversion, bulk resorufin fluorescence relative to DMSO. The following applies: human, hela cells; bulk resorufin, single well.
Data set [2] concerns T1, C. trachomatis L2/434/Bu expressing GFP (CTL2-GFP).
T1 construct: L2/434/Bu GFP intracellular growth in HeLa cells
The experiment in a line: microbe, parasite or virus in culture. The arrangement: C. trachomatis GFP growth in infected HeLa cells, bulk GFP fluorescence normalised to DMSO. The following applies: Chlamydia trachomatis, HeLa, 26 h; read-out: IC50 (µM), bulk GFP fluorescence. As for the experimental part: (§1) MICs were calculated as described above.

Data set [3] shares this test system. The data set is described as follows: microbe, parasite or virus in culture. The arrangement: C. trachomatis total inclusion area by high-content imaging, normalised to DMSO. The following applies: Chlamydia trachomatis, HeLa, 28.5 h; read-out: IC50 (µM), total inclusion area. In short, it runs like this:
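Screening measures GFP fluorescence from the reporter strain and resorufin fluorescence for host viability, with Hoechst-based imaging of fixed cells adding inclusion area, inclusion number and nuclei count per well.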

For data set [4], the target named is T2, ctFabH (CTL2 FabH), His6(-fMet)SG-ctFabH (Chlamydia trachomatis, UniProt O84242).
T2 construct: synthetic gene, modified pRSF-Duet1, E. coli host; partly acylated (mainly pentanoyl) as purified
T2 sequence (O84242 2-327): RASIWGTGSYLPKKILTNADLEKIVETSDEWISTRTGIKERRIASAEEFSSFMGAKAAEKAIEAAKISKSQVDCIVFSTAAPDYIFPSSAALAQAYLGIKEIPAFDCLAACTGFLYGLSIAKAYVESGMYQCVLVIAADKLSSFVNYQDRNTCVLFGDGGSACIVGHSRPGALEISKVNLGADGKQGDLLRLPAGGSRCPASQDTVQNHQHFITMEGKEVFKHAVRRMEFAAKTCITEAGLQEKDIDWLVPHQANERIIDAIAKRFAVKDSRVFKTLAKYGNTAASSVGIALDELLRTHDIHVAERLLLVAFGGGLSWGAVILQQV
The data set is described as follows: continuous UV assay of acetoacetyl-CoA at […] nm. The following applies: 20 µM enzyme, 100 µM acetyl-CoA, 100 µM malonyl-CoA, pH 8.0, 25 °C, 50 mM MgCl2; surrogate of malonyl-ACP. The data set is classed as biochemical.

Another data set concerns T3, B. adolescentis.
T3 construct: DSM 20083
The experiment in a line: microbe, parasite or virus in culture. The arrangement: Microbial growth in liquid dilution assay, OD600 relative to DMSO control. The following applies: Bifidobacterium adolescentis; estimated IC50; read-out: B. adolescentis, IC50 (µM) estimate. In short, it runs like this:
(§2)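 Commensal strains were grown with compounds in a dilution assay, with 30 µM among the concentrations used. A wider panel of gut bacteria was tested by radial diffusion, with 24–48 h compound exposure before growth inhibition zones were measured.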

For a further data set, the system named is T4, B. thetaiotaomicron.
T4 construct: DSM 2079
The experiment in a line: microbe, parasite or virus in culture. The arrangement: Microbial growth in liquid dilution assay, OD600 relative to DMSO control. The following applies: Bacteroides thetaiotaomicron; estimated IC50; read-out: B. thetaiotaomicron, IC50 (µM) estimate. The method, boiled down: as §2

The next data set deals with T5, E. coli.
T5 construct: DSM 301
The experiment in a line: microbe, parasite or virus in culture. The following applies: Escherichia coli; estimated IC50; read-out: E. coli, IC50 (µM) estimate. The arrangement: Microbial growth in liquid dilution assay, OD600 relative to DMSO control. The method, boiled down:
as §2

In a further data set the test system is T6, E. faecalis.
T6 construct: DSM 20478
The data set is described as follows: microbe, parasite or virus in culture. The arrangement: Microbial growth in liquid dilution assay, OD600 relative to DMSO control. The following applies: Enterococcus faecalis; estimated IC50; read-out: E. faecalis, IC50 (µM) estimate. In short, it runs like this:
as §2

In a further data set the test system is T7, L. reuteri.
T7 construct: DSM 20016
The experiment in a line: microbe, parasite or virus in culture. The arrangement: Microbial growth in liquid dilution assay, OD600 relative to DMSO control. The following applies: Limosilactobacillus reuteri; estimated IC50; read-out: L. reuteri, IC50 (µM) estimate. The method, boiled down:
as §2

For a further data set, the system named is T8, L. crispatus.
T8 construct: DSM 20584
The data set is described as follows: microbe, parasite or virus in culture. The arrangement: Microbial growth in liquid dilution assay, OD600 relative to DMSO control. The following applies: Lactobacillus crispatus; estimated IC50; read-out: L. crispatus, IC50 (µM) estimate.

In a further data set the test system is T9, L. iners.
T9 construct: DSM 13335
The experiment in a line: organism not typed. The arrangement: Microbial growth in liquid dilution assay, OD600 relative to DMSO control. The following applies: estimated IC50; read-out: L. iners, IC50 (µM) estimate.

The subject of another data set is T10, G. vaginalis.
T10 construct: DSM 4944
The experiment in a line: microbe, parasite or virus in culture. The arrangement: Microbial growth in liquid dilution assay, OD600 relative to DMSO control. The following applies: Gardnerella vaginalis, read-out: G. vaginalis, IC50 (µM) estimate.

A further data set relates to T11, C. albicans.
T11 construct: DSM 1577
The data set is described as follows: microbe, parasite or virus in culture. The arrangement: Microbial growth in liquid dilution assay, OD600 relative to DMSO control. The following applies: Candida albicans, read-out: C. albicans, IC50 (µM) estimate.

Data set [5] deals with T12, CTL2-GFP (C. trachomatis L2/434/Bu, GFP-expressing).
T12 construct: L2/434/Bu, GFP-expressing
The experiment in a line: microbe, parasite or virus in culture. The arrangement: Intracellular C. trachomatis growth in HeLa cells, bulk GFP fluorescence relative to DMSO. The following applies: Chlamydia trachomatis, HeLa, 28.5 h; bulk GFP. As for the experimental part:
as §1

Data set [6] has the same test system. The data set is described as follows: microbe, parasite or virus in culture. The arrangement: species or system HeLa; Intracellular C. trachomatis growth in HeLa cells, bulk GFP fluorescence relative to DMSO. The following applies: Chlamydia trachomatis, 28.5 h; bulk GFP. The protocol: as §1
For data set [7] the test system is unchanged. The arrangement: species or system HeLa; Intracellular C. trachomatis growth in HeLa cells, bulk GFP fluorescence relative to DMSO. The following applies: 28.5 h, 10 µM; inhibitor.
For data set [8], the system named is T1, C. trachomatis L2/434/Bu expressing GFP (CTL2-GFP). The arrangement: species or system HeLa; C. trachomatis total inclusion area by high-content imaging, normalised to DMSO. The following applies: 28.5 h, 10 µM; inhibitor. An excerpt: In this process, we also complemented the assay described above with an imaging-based readout (Fig 1B). After measurements of bulk GFP and resorufin fluorescence, cells were fixed, stained with the DNA dye Hoechst, and imaged at a high-content imaging platform to detect chlamydial inclusions (GFP) and host cell nuclei (Hoechst). The total area and number of inclusions in individual wells and the number of nuclei then served as additional proxies for chlamydial growth and host cell viability. […] MICs were calculated as described above.

A short description of data set [9]: in vitro. The following applies: human, hela cells.

Converted amounts (≈) assume the structure as drawn. Like-named read-outs stand apart in the source and are kept apart here.

For `O=C(c1cccc(S(=O)(=O)F)c1)N1CCCCC1` [CBK074224], in “in vitro [1]”, the viability at 28.5 h, 10 µM turned out to be 96.6%.
Regarding `O=C(NN=Cc1ccc([N+](=O)[O-])o1)c1nc(-c2ccccc2)cc(-c2ccccc2)n1` [c3e], the IC50 came out at 0.118 µM in data set [2] and 0.133 µM in data set [3].
Take `CC(C)(COP(=O)(O)OP(=O)(O)OC[C@H]1O[C@@H](n2cnc3c(N)ncnc32)[C@H](O)[C@@H]1OP(=O)(O)O)[C@@H](O)C(=O)NCCC(=O)NCCSC(=O)CC(=O)O` [malonyl-CoA]: in data set [4], the “continuous UV assay of acetoacetyl-CoA at 302 nm” value was “using acetyl-CoA and malonyl-CoA (instead of malonyl-ACP) as substrates”.
As for `CCOC(=O)CC(C)(O)P(=O)(OC)OC` (centres unmarked) [CBK261287], the viability at 28.5 h, 10 µM in “in vitro [1]” worked out at 101%.
`CCc1cccc(OCC(=O)Nc2ccc(S(=O)(=O)Nc3onc(C)c3C)cc2)c1` [c2v]: the half-inhibitory concentration (IC50) in the data set with B. adolescentis, with B. thetaiotaomicron, in the data set with E. coli, in the data set with E. faecalis, in the data set with L. reuteri and in the data set with L. crispatus was greater than 30 µM in each case. The IC50 was greater than 30 µM in the data set with L. iners, greater than 30 µM in the data set on G. vaginalis, greater than 30 µM in the data set with C. albicans and 471 nM in data set [5]. This molecule gave an MIC in data set [6] of 0.693 µM (≈ 0.298 µg/mL).
On to `CCn1cc(C(=O)O)c(=O)c2cc(F)c(NC3CCCCC3)cc21` [CBK286635], for which the “% of control remaining” value in [7] was found to be 100.652; in [8], 72.3144. Further, the viability at 28.5 h, 10 µM in the data set “in vitro [9]” was determined as 89.2%.
`S=P(Oc1ccccc1)(Oc1ccccc1)Oc1ccccc1` [CBK260987]: the viability at 28.5 h, 10 µM in the data set “in vitro [1]” is 87.5%.

A word on the viability: it is a read-out of living cells in per cent, often relative to untreated cells. One may read the IC50 as the point on the concentration scale where inhibition reaches its midpoint.
